Results published in publication PMC6804443 (Acta Pharmaceutica Sinica. B, 2019).
Where two headings read alike, the source gives them in different places.

Columns and labels:
CYP2B6 = CYP2B6 induction by XueBiJing compounds in cryopreserved human hepatocytes; assay type: in vitro ADME; conditions: higher concentrations; range over the named compounds and enzymes
OAT1 [1] = target: T1, OAT1 (Homo sapiens, UniProt Q4U2R8); conditions: read-out: Km as OAT1 substrate; cited from earlier work
T1 sequence (Q4U2R8 1-563): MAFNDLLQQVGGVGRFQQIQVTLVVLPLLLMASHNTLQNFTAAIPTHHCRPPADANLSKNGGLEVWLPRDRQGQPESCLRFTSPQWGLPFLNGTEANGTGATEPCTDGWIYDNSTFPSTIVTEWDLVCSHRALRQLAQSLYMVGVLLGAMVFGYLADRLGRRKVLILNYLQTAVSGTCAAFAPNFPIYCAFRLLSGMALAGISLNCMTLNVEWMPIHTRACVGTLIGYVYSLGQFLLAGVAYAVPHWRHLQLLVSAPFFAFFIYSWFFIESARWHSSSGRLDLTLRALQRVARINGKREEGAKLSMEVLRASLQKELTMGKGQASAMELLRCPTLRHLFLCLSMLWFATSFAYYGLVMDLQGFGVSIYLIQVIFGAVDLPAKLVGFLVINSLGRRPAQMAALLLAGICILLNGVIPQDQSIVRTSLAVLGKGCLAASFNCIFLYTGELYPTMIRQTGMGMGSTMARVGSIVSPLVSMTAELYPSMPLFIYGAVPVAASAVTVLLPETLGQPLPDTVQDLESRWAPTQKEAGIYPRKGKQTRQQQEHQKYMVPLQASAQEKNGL

[2] = XueBiJing compounds, cited from earlier work; for LogD(7.4): pH 7.4
OAT1 [3] = target: T1, OAT1; assay: OAT1 inhibition by XueBiJing compounds, transfected HEK293 cells [PAH]; assay type: in vitro ADME; conditions: for Inhibition of OAT1: 100 μmol/L; for IC50: read-out: IC50, OAT1 [PAH], mean ± SD (n = 3)
[4] = XueBiJing compounds; cited from earlier work
[5] = cited from earlier work
OAT3 [6] = target: T2, OAT3 (Homo sapiens, UniProt Q8TCC7); conditions: read-out: Km as OAT3 substrate; cited from earlier work
T2 sequence (Q8TCC7 1-542): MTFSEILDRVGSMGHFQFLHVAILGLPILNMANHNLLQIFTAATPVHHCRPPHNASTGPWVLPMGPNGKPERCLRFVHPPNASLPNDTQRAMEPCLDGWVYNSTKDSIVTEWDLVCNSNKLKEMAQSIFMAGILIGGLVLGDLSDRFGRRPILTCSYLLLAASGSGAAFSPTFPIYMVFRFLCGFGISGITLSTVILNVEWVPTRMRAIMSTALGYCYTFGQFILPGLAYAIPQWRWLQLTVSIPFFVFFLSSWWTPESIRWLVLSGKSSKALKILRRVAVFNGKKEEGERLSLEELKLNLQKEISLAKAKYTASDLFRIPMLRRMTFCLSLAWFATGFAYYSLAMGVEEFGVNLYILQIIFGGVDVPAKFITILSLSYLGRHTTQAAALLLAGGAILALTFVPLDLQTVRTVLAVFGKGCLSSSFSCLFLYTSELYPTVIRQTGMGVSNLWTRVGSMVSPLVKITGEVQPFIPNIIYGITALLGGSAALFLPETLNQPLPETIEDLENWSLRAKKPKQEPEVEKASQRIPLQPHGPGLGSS

OAT2 = target: T3, OAT2 (Homo sapiens, UniProt Q9Y694); conditions: read-out: Km as OAT2 substrate; cited from earlier work
T3 sequence (Q9Y694 1-546 isoform Q9Y694-2): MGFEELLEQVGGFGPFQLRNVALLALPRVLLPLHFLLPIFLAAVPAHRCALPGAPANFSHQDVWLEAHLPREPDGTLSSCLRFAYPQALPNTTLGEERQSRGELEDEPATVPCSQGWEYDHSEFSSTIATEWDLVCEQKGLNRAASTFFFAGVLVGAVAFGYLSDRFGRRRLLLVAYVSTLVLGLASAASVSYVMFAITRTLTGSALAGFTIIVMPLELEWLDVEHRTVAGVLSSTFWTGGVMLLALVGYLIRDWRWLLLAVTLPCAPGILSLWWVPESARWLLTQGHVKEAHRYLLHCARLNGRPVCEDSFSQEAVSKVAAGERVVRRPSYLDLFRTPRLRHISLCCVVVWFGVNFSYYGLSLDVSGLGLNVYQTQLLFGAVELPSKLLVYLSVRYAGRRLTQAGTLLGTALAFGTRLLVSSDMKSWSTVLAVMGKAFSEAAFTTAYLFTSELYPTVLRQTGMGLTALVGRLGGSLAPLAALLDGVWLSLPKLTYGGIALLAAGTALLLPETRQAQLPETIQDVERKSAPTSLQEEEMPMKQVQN

CYP2C9 [7] = target: T4, CYP2C9 (Homo sapiens, UniProt P11712); assay: CYP2C9 inhibition by XueBiJing compounds, cDNA-expressed enzyme [MFC→HFC]; assay type: in vitro ADME; conditions: 100 μmol/L
T4 sequence (P11712 whole entry): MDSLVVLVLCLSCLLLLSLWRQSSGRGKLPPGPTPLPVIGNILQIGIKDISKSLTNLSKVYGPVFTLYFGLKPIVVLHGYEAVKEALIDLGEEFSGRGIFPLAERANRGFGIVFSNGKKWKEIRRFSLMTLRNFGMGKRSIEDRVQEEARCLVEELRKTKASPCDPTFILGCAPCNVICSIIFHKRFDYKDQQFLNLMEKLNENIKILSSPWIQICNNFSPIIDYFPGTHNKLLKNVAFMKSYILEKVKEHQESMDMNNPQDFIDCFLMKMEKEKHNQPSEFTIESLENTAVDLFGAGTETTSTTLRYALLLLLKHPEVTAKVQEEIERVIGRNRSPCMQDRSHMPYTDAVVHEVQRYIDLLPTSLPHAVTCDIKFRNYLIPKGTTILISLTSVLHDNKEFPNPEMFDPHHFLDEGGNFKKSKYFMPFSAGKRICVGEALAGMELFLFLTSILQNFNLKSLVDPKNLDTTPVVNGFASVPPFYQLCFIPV

UGT1A9 = target: T5, UGT1A9 (Homo sapiens, UniProt O60656); assay: UGT1A9 inhibition by XueBiJing compounds, cDNA-expressed enzyme [4-MU→4-MUG]; assay type: in vitro ADME; conditions: 100 μmol/L
T5 sequence (O60656 26-530): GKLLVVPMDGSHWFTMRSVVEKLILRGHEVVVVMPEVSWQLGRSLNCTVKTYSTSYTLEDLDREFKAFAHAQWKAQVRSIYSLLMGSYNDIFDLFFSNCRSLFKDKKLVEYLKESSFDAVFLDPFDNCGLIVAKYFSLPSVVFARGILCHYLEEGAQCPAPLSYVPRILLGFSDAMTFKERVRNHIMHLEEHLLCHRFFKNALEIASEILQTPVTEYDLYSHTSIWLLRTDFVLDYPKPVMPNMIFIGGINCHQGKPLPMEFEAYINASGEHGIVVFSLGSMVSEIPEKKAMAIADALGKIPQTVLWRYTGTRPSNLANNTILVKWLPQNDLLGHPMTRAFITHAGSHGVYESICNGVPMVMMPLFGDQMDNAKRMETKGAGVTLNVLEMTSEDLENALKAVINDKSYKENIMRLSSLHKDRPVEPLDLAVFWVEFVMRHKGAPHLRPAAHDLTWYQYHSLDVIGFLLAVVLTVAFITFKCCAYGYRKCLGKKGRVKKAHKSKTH

CYP2C9 [8] = target: T4, CYP2C9; assay type: in vitro ADME
OATP1B3 [9] = target: T6, OATP1B3 (Homo sapiens, UniProt Q9NPD5); assay: in vitro
T6 sequence (Q9NPD5 1-702): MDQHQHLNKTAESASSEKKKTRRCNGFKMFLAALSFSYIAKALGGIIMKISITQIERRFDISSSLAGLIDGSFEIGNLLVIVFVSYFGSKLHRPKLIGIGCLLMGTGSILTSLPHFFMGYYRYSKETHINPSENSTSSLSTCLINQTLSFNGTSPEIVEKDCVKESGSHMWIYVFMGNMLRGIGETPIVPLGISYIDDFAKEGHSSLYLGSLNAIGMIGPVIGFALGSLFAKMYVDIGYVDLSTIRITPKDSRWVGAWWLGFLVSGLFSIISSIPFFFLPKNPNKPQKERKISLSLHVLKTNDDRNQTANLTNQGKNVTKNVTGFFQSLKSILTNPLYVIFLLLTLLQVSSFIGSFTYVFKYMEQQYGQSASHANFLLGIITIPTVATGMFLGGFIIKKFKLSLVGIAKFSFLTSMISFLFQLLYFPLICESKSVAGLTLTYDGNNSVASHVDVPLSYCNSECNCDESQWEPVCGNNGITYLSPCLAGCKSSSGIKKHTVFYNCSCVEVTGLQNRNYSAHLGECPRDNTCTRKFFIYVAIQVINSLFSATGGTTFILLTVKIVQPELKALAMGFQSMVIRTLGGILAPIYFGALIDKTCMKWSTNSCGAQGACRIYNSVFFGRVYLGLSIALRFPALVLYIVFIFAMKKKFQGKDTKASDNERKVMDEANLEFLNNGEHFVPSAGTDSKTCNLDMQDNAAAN

OAT3 [10] = target: T2, OAT3; assay: Reported in vitro interaction with OAT3; assay type: in vitro ADME; conditions: estimated from reported Cmax, fu-p and literature potency
OATP1B3 [11] = target: T6, OATP1B3; conditions: antibiotic as perpetrator, salvianolic acid B (X10) as victim; (Cmax × fu-p × R)/IC50
OATP1B3 [12] = target: T6, OATP1B3; conditions: IC50, OATP1B3 [X10], mean ± SD (n = 3)
[13] = tested on: P450 enzymes, UGTs, SULTs, OATP1B1/1B3, OAT1/3, OCT2, MATE1/2-K, MDR1, BCRP; assay type: in vitro ADME, human; conditions: data pending publication elsewhere
CYP1A2 = conditions: hepatocytes
[14] = tested on: P450 enzymes, UGTs, SULTs, OATP1B1/1B3, OAT1/3, OCT2, MATE1/2-K, MDR1, BCRP; conditions: cited from earlier work
[15] = human, XueBiJing 100 mL via 75-min intravenous infusion

COc1cc(CC(O)C(=O)O)ccc1O (stereo not drawn) [X9, 3-O-methyltanshinol]
mRNA-T/U ratio, CYP2B6 (CYP2B6): 4.0 to 9.6 | mRNA-T/U ratio, CYP3A4 (CYP3A4; higher concentrations, range over the named compounds and enzymes): 4.0 to 9.6 | Km (OAT1 [1]): 219 µM | pKa [2]: 3.8 | LogD(7.4) [2]: −3.3 | Inhibition of OAT1 (OAT1 [3]): > 50% | IC50 (OAT1 [3]): 106 ± 26 µM | Membrane permeability [4]: Good | Cmax [5, 15]: 10 nM | Major elimination route ([5]; human): Renal excretion, TS&GF-based | Km (OAT3 [6]): 0.871 mM | Km (OAT2): 2.85 mM

oxypaeoniflorin [X3]
Inhibition of CYP2C9 (CYP2C9 [7]): 55% | Inhibition of UGT1A9 (UGT1A9): 57% | Time-dependent inhibition of CYP2C9 (CYP2C9 [8]): negligible

Cn1nnnc1SCC1=C(C(=O)O)N2C(=O)[C@@H](NC(=O)[C@H](O)c3ccccc3)[C@H]2SC1 [A11, cefamandole]
inhibition at 1000 μmol/L (OATP1B3 [9]): > 90% | DDI index, inhibiting OAT3 (OAT3 [10]): ≥ 1.0 | Inhibition DDI index, OATP1B3 (OATP1B3 [11]): 1.70 | IC50 (OATP1B3 [12]): 53 ± 20 µM

CC(=O)NC[C@H]1CN(c2ccc(N3CCOCC3)c(F)c2)C(=O)O1 [A29, linezolid]
DDI index, inhibiting OAT3 (OAT3 [10]): ≥ 1.0

O=Cc1ccc(O)c(O)c1 [PCD, protocatechuic aldehyde]
Related metabolism and transport data (substrate status) [13]: PCD is metabolized by ALDH and COMT. Impaired ALDH activity can be compensated by COMT, but could result in decreased systemic exposure to X11 ^a.

O=C(O)C(O)Cc1ccc(O)c(O)c1 (stereo not drawn) [X8, tanshinol]
EA-T/U ratio (treated-cell/untreated-cell ratio of enzyme activity), CYP1A2 (CYP1A2): 2.1–4.9 | mRNA-T/U ratio, CYP1A2 (CYP1A2): 4.0 to 9.6 | mRNA-T/U ratio, CYP2B6 (CYP2B6): 4.0 to 9.6 | Related metabolism and transport data (substrate status) [14]: COMT substrate | EA-T/U ratio, CYP3A4 (CYP3A4; hepatocytes): 2.1–4.9 | mRNA-T/U ratio, CYP3A4 (CYP3A4; hepatocytes): 4.0 to 9.6 | Km (OAT1 [1]): 121 µM | pKa [2]: 3.8 | LogD(7.4) [2]: −3.3 | Inhibition of OAT1 (OAT1 [3]): > 50% | IC50 (OAT1 [3]): 78 ± 14 µM | fu-p (unbound fraction in plasma) ([5]; human plasma): 99% | Cmax [5, 15]: 100 nM | VSS [5, 15]: 1.13 L/kg | t1/2 [5, 15]: 42 min | fe-U (fraction of dose excreted unchanged into urine) ([5]; human): 59% | Km (OAT3 [6]): 1.89 mM | Km (OAT2): 0.859 mM
